The text below walks through data of patent EP2982745A1, “Method for expanding immune cells” (Johann Wolfgang Goethe-Universität, Frankfurt am Main, priority 2014, dated 2016).

Data set [1] deals with Primary NK cells. The experiment in a line: NK cell subset distribution during expansion (flow cytometry). It counts as cell-based, human. To be noted: IL-2/-15/SPV-106 at 5µM; 3, 6 and 10 days; n = 3; figure 3. As to the method: (§1) NKL cell line was grown in Iscove's Modified Dulbecco's Medium (IMDM-Lonza) supplemented with 20% fetal bovine serum and recombinant human interleukine 2 (IL-2, 100 U/ml). Proliferation assay was performed by culturing 2x10^5 NKL cells/ml (96 multiwell; Nunc Thermo Scientific) in 200 µl growth medium supplemented with IL-2 (100 U/ml); IL-2/-15 (10 ng/ml); or IL-2/-15/SPV-106 5µM. Cells were counted and culture medium was changed every three days. Primary NK cells were isolated from peripheral blood of healthy donors using different methods of NK cell isolation (such as Easy Sep Human NK Cell Enrichment Kit, Stem cell Technologies or Human NK Cell Negative Selection Kit, Miltenyi). Proliferation assay was performed by culturing 2x10^6 primary NK cells/ml (24 multiwell ) in 1 ml growth medium supplemented with IL-2 (100 U/ml)/IL-15 (10 ng/ml); or IL-2/-15/SPV-106 5µM. Cells were counted and culture medium was changed every three days. Average of relative cell counts was determined microscopically using Trypan blue staining to exclude death or damaged cells.
Primary NK cells were cultured in growth medium for 10 days in presence of IL-2/-15, IL 2/-15, or IL-2/-15/ SPV-106 (at 5µM). At 3, 6 and 10 the NK cell subset distribution (CD56^high : CD56^dim) was analysed by flow cytometry. Average of the NK cell subset ratio is shown in the graph of figure 3 (n = 3 at each time point).

Data set [2] deals with Primary NK cells. Kind of data set: Proliferation assay of primary NK cells (relative cell counts, Trypan blue). It counts as cell-based, human. The following applies: IL-2/-15/SPV-106 at 5 µM; after 10 days of culture; n = 3; figure 2. As to the method:
as §1
Primary NK cells isolated from peripheral blood were cultured in growth medium for 10 days in presence of IL-2/-15, or IL-2/-15/SPV-106 (5µM). At 3, 6 and 10 days cells were counted. Average of relative cell counts in comparison of 100% at day 0 is shown in the graph of figure 2 (n = 3 at each time point).

Data set [3] has as its system K562 target cells. The experiment in a line: Europium release cytotoxicity assay of expanded NK cells. To be noted: NK cells expanded by cytokines and 5µM SPV-106; E/T ratios 2.5:1, 5:1, 10:1; 4 h; figure 4. It counts as cell-based, human. The source says:
Effector cells were generated prepared as described above. As target cells, K562, a human chronic myelogenous leukemia cell line, […], were maintained in culture in RPMI 1640 medium supplemented with 10% fetal bovine serum. The medium was changed three times a week, and the cells were in the log phase of growth when used as targets in cytotoxicity assays. About 5 x10^6 target cells were washed in saline to reduce extracellular Ca^+2 content. The cell pellet was resuspended in 1 ml of labeling buffer supplemented with […] Eu(DH3C00)^3+, 100 mM DTPA, and 0.5 mg of dextran sulfate. This cell suspension was incubated for 20 min at room temperature with occasional shaking. The labeling process was stopped by the addition of […] of 100 mM CaCl2 solution per ml. After 5 min of continued incubation, the cells were washed three times in 30 ml of repair buffer and then one to two times in 10 ml of medium and were finally resuspended in CM at a concentration of 5 x 10^4 cells/ml. […] The percentage of specific cytotoxicity was calculated as follows: ((experimental release (counts)-spontaneous release (counts)) : (maximal release (counts)-spontaneous release (counts)) x 100.
Killing activity of K562 target cells was assessed by Europium Assay as described in the following Material and Methods section.

Data set [4] concerns NKL cell line. Kind of data set: Proliferation assay of NKL cell line (cell counts). The class given is cell-based. The following applies: IL-2/-15/SPV-106 (5µM); already after 3 days of culture; counted at 3, 6 and 10 days; n = 7; figure 1. As to the method: as §1
NKL cells were cultured in growth medium for 10 days in presence of IL-2, IL-2/-15, or IL-2/-15/SPV-106 (5µM). SPV-106 is the selective activator of histone acetylase PCAF. At 3, 6 and 10 days cells were counted. Average cell number (x 10^4) is shown in the graph of figure 1 (n = 7 at each time point). […]

Turning to `CCCCCCCCCCCCCCC=C(C(=O)OCC)C(=O)OCC` [SPV-106], the “NK cell subset distribution (CD56^high : CD56^dim)” value in data set [1] is on record as “did not change the naturally occurring NK subset distribution”. Also, the “primary NK cell proliferation (average of relative cell counts in comparison of 100% at day 0)” value in data set [2] is “enhances primary NK cell proliferation”. The “cytotoxic capacity (killing activity of K562 target cells)” value in data set [3] is listed as “retained cytotoxic capacity”. Further, the “NKL cell line proliferation (average cell number)” value in data set [4] is recorded as “enhances NKL cell line proliferation”.
